For this experiment, the target named is T1, human recombinant HDAC6 (Homo sapiens, UniProt Q9UBN7).
T1 construct: purchased Calbiochem 382180
T1 sequence (Q9UBN7 1-1215): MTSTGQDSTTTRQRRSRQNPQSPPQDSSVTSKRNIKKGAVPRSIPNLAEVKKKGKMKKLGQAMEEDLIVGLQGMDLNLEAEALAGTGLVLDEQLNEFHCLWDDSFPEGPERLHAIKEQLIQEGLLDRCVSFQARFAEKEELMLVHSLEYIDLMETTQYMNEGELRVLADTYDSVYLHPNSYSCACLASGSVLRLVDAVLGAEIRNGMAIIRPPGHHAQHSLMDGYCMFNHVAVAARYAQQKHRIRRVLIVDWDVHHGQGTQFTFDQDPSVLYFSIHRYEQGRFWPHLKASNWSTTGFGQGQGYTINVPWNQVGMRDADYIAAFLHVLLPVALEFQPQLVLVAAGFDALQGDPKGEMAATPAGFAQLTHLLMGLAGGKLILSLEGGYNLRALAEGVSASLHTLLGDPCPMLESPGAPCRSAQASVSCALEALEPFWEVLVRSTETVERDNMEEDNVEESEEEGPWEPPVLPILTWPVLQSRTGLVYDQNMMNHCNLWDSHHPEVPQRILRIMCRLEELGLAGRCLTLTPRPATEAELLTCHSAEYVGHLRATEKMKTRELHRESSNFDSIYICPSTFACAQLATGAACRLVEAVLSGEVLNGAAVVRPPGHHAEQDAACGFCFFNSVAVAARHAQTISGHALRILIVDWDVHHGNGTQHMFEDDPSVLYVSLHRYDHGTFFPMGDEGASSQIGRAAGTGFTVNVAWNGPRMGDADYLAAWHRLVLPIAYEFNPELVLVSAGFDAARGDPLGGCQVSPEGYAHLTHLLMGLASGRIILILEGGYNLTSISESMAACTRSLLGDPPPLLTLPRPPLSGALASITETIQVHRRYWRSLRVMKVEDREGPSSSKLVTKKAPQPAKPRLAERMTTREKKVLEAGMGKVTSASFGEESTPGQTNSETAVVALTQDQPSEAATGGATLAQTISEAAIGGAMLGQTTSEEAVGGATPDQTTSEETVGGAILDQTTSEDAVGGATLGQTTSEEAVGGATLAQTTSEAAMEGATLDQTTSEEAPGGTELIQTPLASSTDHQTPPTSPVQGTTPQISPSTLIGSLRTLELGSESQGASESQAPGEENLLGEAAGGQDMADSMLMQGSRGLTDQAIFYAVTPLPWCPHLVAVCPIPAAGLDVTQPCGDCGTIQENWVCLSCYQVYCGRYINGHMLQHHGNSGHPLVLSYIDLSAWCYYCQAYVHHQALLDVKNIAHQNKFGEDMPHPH
As to the kind of experiment: HDAC6 enzyme activity inhibition assay (HDAC Fluorimetric Drug Discovery Kit). The format is biochemical. As to conditions: for HDAC6 selectivity (fold): HDAC1 vs HDAC6; for IC50: same protocol as the HDAC1 enzyme activity test. The procedure: In order to examine the HDAC6 selectivity of the compounds of formula I of the present invention by HDAC1 and HDAC6 enzymatic activity inhibition assays, an experiment was performed using a conventional substance as a control.
HDAC enzyme activity was measured using a HDAC Fluorimetric Drug Discovery Kit (BML-AK511, 516, Enzo Life Science). For the HDAC1 enzyme activity test, human recombinant HDAC1 (BML-SE456) was used as an enzyme source, and Fluor de Lys®-“SIRT1 (BNL-KI177) was used as a substrate. A 5-fold dilution of the compound was seeded into a 96-well plate, and then 0.3 μg of the enzyme and 10 μM of the substrate were added to each well of the plate and allowed to react at 30° C. for 60 minutes. Then, Fluor de Lys®-Developer II (BML-KI176) was added thereto and allowed to react for 30 minutes, after which the fluorescence value (Ex 360, Em 460) was measured using a multi-plate reader (Flexstation 3, Molecular Device). The HDAC6 enzyme was tested using human recombinant HDAC6 (382180) (Calbiochem) according to the same protocol as the HDAC1 enzyme activity test method. Based on the resulting values, each IC50 value was calculated using GraphPad Prism4.0 program.

In general, IC50 refers to the concentration needed to halve the response being measured.

As to `NC(=O)[C@@H]1CCCN1CCS(=O)(=O)N(Cc1ccc(-c2nnc(C(F)F)o2)cc1)c1ccccc1` [Compound 11812, (S)-1-(2-(N-(4-(5-(difluoromethyl)-1,3,4-oxadiazol-2-yl)benzyl)-N-phenylsulfamoyl)ethyl)pyrrolidine-2-carboxamide], the “HDAC6 selectivity (fold)” value is on record as 3039 fold and the IC50 was found to be 32.9 nM.

Regarding `O=S(=O)(C1CCN(C2COC2)CC1)N(Cc1ccc(-c2nnc(C(F)F)o2)cc1)c1cccc(Cl)c1` [Compound 11681, N-(3-chlorophenyl)-N-(4-(5-(difluoromethyl)-1,3,4-oxadiazol-2-yl)benzyl)-1-(oxetan-3-yl)piperidine-4-sulfonamide], the “HDAC6 selectivity (fold)” value is listed as 6667 fold and the IC50 amounted to 15 nM.

Consider `CS(=O)(=O)N(Cc1ccc(-c2nnc(C(F)(F)F)o2)cc1F)c1ccccc1F` [Compound 11273, N-(2-fluoro-4-(5-(trifluoromethyl)-1,3,4-oxadiazol-2-yl)benzyl)-N-(2-fluorophenyl)methanesulfonamide], for which the “HDAC6 selectivity (fold)” value amounted to 1266 fold and the IC50 was 79 nM.

With `CS(=O)(=O)N(Cc1ccccn1)Cc1ccc(-c2nnc(C(F)(F)F)o2)cc1F` [Compound 11044, N-(2-fluoro-4-(5-(trifluoromethyl)-1,3,4-oxadiazol-2-yl)benzyl)-N-(pyridin-2-ylmethyl)methanesulfonamide], the “HDAC6 selectivity (fold)” value is listed as 302 fold and the 50% inhibitory concentration (IC50) was 331 nM.

As to `CS(=O)(=O)N(Cc1ccc(-c2nnc(C(F)F)o2)cc1F)c1ccc(Cl)cc1` [Compound 11281, N-(4-chlorophenyl)-N-(4-(5-(difluoromethyl)-1,3,4-oxadiazol-2-yl)-2-fluorobenzyl)methanesulfonamide], the “HDAC6 selectivity (fold)” value is reported as 2273 fold and the IC50 is 44 nM.

As to `CCS(=O)(=O)N(Cc1ccc(-c2nnc(C(F)F)o2)cc1F)c1cccc2c1cnn2C` [Compound 11520, N-(4-(5-(difluoromethyl)-1,3,4-oxadiazol-2-yl)-2-fluorobenzyl)-N-(1-methyl-1H-indazol-4-yl)ethanesulfonamide], the “HDAC6 selectivity (fold)” value was found to be 3125 fold and the IC50 was 32 nM.

For `CN1CCC(S(=O)(=O)N(Cc2ccc(-c3nnc(C(F)F)o3)cc2F)c2ccccc2)CC1` [Compound 11372, N-(4-(5-(difluoromethyl)-1,3,4-oxadiazol-2-yl)-2-fluorobenzyl)-1-methyl-N-phenylpiperidine-4-sulfonamide], the “HDAC6 selectivity (fold)” value is recorded as 11111 fold and the IC50 amounted to 9 nM.

For `Cc1cccc(N(Cc2ccc(-c3nnc(C(F)F)o3)cc2)S(=O)(=O)C2CCN([C@H]3CC[C@@H](C(F)(F)F)CC3)CC2)c1` [Compound 11698, N-(4-(5-(difluoromethyl)-1,3,4-oxadiazol-2-yl)benzyl)-N-(m-tolyl)-1-((1s,4s)-4-(trifluoromethyl)cyclohexyl)piperidine-4-sulfonamide], the “HDAC6 selectivity (fold)” value turned out to be 151 fold and the IC50 is 661 nM.

As to `O=S(=O)(CCN1CCN(c2ccncc2)CC1)N(Cc1ccc(-c2nnc(C(F)F)o2)cc1)c1ccccc1` [Compound 11768, N-(4-(5-(difluoromethyl)-1,3,4-oxadiazol-2-yl)benzyl)-N-phenyl-2-(4-(pyridin-4-yl)piperazin-1-yl)ethane-1-sulfonamide], the “HDAC6 selectivity (fold)” value was 2610 fold and the IC50 stood at 38.3 nM.

On to `O=S(=O)(CCN1CCC1)N(Cc1ccc(-c2nnc(C(F)F)o2)cc1)c1ccccc1` [Compound 11738, 2-(azetidin-1-yl)-N-(4-(5-(difluoromethyl)-1,3,4-oxadiazol-2-yl)benzyl)-N-phenylethanesulfonamide], for which the “HDAC6 selectivity (fold)” value is listed as 1466 fold and the IC50 was determined as 68.2 nM.

Regarding `O=S(=O)(CCN1CCC[C@H]1CO)N(Cc1ccc(-c2nnc(C(F)F)o2)cc1)c1ccccc1` [Compound 11802, (S)—N-(4-(5-(difluoromethyl)-1,3,4-oxadiazol-2-yl)benzyl)-2-(2-(hydroxymethyl)pyrrolidin-1-yl)-N-phenylethane-1-sulfonamide], the “HDAC6 selectivity (fold)” value was 2849 fold and the IC50 is 35.1 nM.

For `O=S(=O)(CCN1CCC(c2ccc(F)cc2)CC1)N(Cc1ccc(-c2nnc(C(F)F)o2)cc1)c1ccccc1` [Compound 11819, N-(4-(5-(difluoromethyl)-1,3,4-oxadiazol-2-yl)benzyl)-2-(4-(4-fluorophenyl)piperidin-1-yl)-N-phenylethane-1-sulfonamide], the “HDAC6 selectivity (fold)” value stood at 284 fold and the IC50 turned out to be 351 nM.

For the molecule `CCS(=O)(=O)N(Cc1ccc(-c2nnc(C(F)F)o2)cc1F)c1cccc(CN2CCS(=O)(=O)CC2)c1` [Compound 11392, N-(4-(5-(difluoromethyl)-1,3,4-oxadiazol-2-yl)-2-fluorobenzyl)-N-(3-((1,1-dioxidothiomorpholino)methyl)phenyl)ethanesulfonamide], the “HDAC6 selectivity (fold)” value is recorded as 1000 fold and the IC50 amounted to 100 nM.

With `CS(=O)(=O)N(Cc1ccc(-c2nnc(C(F)F)o2)cn1)c1ccc2c(c1)CN(C1COC1)C2` [Compound 11735, N-((5-(5-(difluoromethyl)-1,3,4-oxadiazol-2-yl)pyridin-2-yl)methyl)-N-(2-(oxetan-3-yl)isoindolin-5-yl)methanesulfonamide], the “HDAC6 selectivity (fold)” value is reported as 123 fold and the IC50 came to 809 nM.

Regarding `CCS(=O)(=O)N(Cc1ccc(-c2nnc(C(F)F)o2)cc1F)c1ccccc1` [Compound 11154, N-(4-(5-(difluoromethyl)-1,3,4-oxadiazol-2-yl)-2-fluorobenzyl)-N-phenylethanesulfonamide], the “HDAC6 selectivity (fold)” value turned out to be 5263 fold and the IC50 came to 19 nM.

Regarding `O=C(C1CC1)N1CC(N2CCC(S(=O)(=O)N(Cc3ccc(-c4nnc(C(F)F)o4)cn3)c3cccc(Cl)c3)CC2)C1` [Compound 11784, N-(3-chlorophenyl)-1-(1-(cyclopropanecarbonyl)azetidin-3-yl)-N-((5-(5-(difluoromethyl)-1,3,4-oxadiazol-2-yl)pyridin-2-yl)methyl)piperidine-4-sulfonamide], the “HDAC6 selectivity (fold)” value is 3154 fold and the IC50 stood at 31.7 nM.

Take `CS(=O)(=O)N(Cc1ccc(-c2nnc(C(F)(F)F)o2)c(F)c1)c1ccccc1` [Compound 11183, N-(3-fluoro-4-(5-(trifluoromethyl)-1,3,4-oxadiazol-2-yl)benzyl)-N-phenylmethanesulfonamide]: the “HDAC6 selectivity (fold)” value is reported as 426 fold and the IC50 was found to be 235 nM.

Consider `Cc1ccc(N(Cc2ccc(-c3nnc(C(F)F)o3)cc2F)S(C)(=O)=O)cc1` [Compound 11283, N-(4-(5-(difluoromethyl)-1,3,4-oxadiazol-2-yl)-2-fluorobenzyl)-N-(p-tolyl)methanesulfonamide], for which the “HDAC6 selectivity (fold)” value was determined as 1852 fold and the IC50 amounted to 54 nM.

Regarding `CC(C)N1CC(N2CCC(S(=O)(=O)N(Cc3ccc(-c4nnc(C(F)F)o4)cn3)c3cccc(Cl)c3)CC2)C1` [Compound 11781, N-(3-chlorophenyl)-N-((5-(5-(difluoromethyl)-1,3,4-oxadiazol-2-yl)pyridin-2-yl)methyl)-1-(1-isopropylazetidin-3-yl)piperidine-4-sulfonamide], the “HDAC6 selectivity (fold)” value worked out at 5319 fold and the IC50 turned out to be 18.8 nM.
